Data from publication doi:10.1101/2021.12.02.470934v1 (biorxiv, 2021).
pIC50: −log10 of the molar value.

Target: FGFR1 kinase (FGFR1 kinase enzyme system, Promega V9321) (Homo sapiens, UniProt P11362)
Experiment: ADP-Glo luminescence kinase assay
Type: biochemical

Chain of FGFR1 kinase (FGFR1 kinase enzyme system, Promega V9321) (P11362 398-822 limits assumed): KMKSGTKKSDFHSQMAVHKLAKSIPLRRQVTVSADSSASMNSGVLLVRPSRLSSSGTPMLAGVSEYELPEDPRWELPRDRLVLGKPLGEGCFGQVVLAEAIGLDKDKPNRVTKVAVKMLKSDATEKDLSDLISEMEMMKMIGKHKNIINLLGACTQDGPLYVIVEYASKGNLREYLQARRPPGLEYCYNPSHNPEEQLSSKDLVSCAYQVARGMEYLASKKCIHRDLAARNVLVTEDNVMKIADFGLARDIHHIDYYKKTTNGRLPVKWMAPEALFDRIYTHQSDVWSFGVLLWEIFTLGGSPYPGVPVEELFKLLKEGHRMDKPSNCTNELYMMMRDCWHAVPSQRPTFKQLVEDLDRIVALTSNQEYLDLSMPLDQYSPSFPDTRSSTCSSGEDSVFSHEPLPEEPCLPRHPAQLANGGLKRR

- pIC50: 5.98
SMILES: CCN(CC)CCCC(C)Nc1c2ccc(Cl)cc2nc2ccc(OC)cc12 (stereo not shown) [Quinacrine]
